Reference: US7960402B2, “Carbamoyl-substituted spiro derivative” (Banyu Pharmaceutical Co., Ltd., priority 2004, dated 2011)

Target: T1, human histamine H3 receptor (Homo sapiens, UniProt Q9Y5N1)
T1 construct: expressed in transfected cells; host or cells: HEK293 and CHO-K1
Assay: Test for Inhibition of Bonding of Histamine Analog
Type: binding
Conditions: for IC50: membrane specimen from histamine H3 receptor-expressed cells, [3H]N-α-methylhistamine, 25° C., 2 hours, read-out: 50% inhibition concentration (IC50 value) of the test compound to a specific N-alpha-methylhistamine bond; for inhibition of the bond of N-alpha-methylhistamine (histamine analog) to a histamine H3 receptor: summary in words of the IC50 results
Source text: A cDNA sequence coding for human histamine H3 receptor [refer to WO 00/39164] was cloned to an expression vector pCR2.1, pEF1× (manufactured by Invitrogen) and pCI-neo (manufactured by Promega). The resulting expression vector was transfected to host cells HEK293 and CHO-K1 (American Type Culture Collection) by a cationic lipid method [refer to Proceedings of the National Academy of Sciences, the United States of America, volume 84, page 7413 (1987)] to give histamine H3 receptor-expressed cells.
A membrane specimen prepared from the cells where histamine H3 receptor was expressed was incubated at 25° C. for 2 hours in an assay buffer (50 mM Tris buffer, pH 7.4) together with a test compound (the compound of Example 1) and 20,000 cpm of [3H]N-α-methylhistamine (manufactured by NEN) and then filtered using a glass filter GF/C. After washing with a 50 mM Tris buffer of pH 7.4, radiation activity on the glass filter was determined. Non-specific bond was measured in the presence of a 10 μM thioperamide (manufactured by Sigam) to determine a 50% inhibition concentration (IC50 value) of the test compound to a specific N-alpha-methylhistamine bond [refer to Molecular Pharmacology, volume 55, page 1101 (1999)].

T1 sequence (Q9Y5N1 whole entry): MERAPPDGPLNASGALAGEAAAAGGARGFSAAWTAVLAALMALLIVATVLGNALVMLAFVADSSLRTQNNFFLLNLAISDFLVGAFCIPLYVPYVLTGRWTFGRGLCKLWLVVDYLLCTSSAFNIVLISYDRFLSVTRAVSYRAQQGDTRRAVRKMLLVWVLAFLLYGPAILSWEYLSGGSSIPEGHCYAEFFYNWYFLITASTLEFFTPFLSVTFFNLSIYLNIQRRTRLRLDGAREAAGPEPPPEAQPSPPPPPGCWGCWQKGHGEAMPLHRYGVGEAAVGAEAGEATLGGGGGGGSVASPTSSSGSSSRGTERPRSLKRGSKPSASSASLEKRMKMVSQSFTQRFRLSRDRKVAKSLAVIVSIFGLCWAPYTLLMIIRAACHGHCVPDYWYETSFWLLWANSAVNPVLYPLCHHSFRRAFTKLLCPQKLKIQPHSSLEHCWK

IC50 | inhibition of the bond of N-alpha-methylhistamine (histamine analog) to a histamine H3 receptor | Compound
4 nM | strongly inhibited | CN(CCN1CCCCC1)C(=O)[C@H]1CC[C@@]2(CC1)OC(=O)c1cc(F)ccc12.Cl [Example 10, trans-5′-fluoro-3′-oxo-N-methyl-N-(2-piperidin-1-ylethyl)-spiro[cyclohexane-1,1′-(3′H)-isobenzofuran]-4-carboxamide hydrochloride]
0.08 nM | strongly inhibited | CN(CCN1CCCCC1)C(=O)[C@H]1CC[C@@]2(CC1)OC(=O)c1cc(-c3ccccn3)ccc12 [Example 58, trans-5′-(Pyridin-2-yl)-3′-oxo-N-methyl-N-(2-piperidin-1-ylethyl)-spiro[cyclohexane-1,1′-(3′H)-isobenzofuran]-4-carboxamide]
0.67 nM | strongly inhibited | CN(CCN1CCCCC1)C(=O)[C@H]1CC[C@@]2(CC1)OC(=O)c1cc(Oc3ccccn3)ccc12 [Example 68, trans-5′-(Pyridin-2-yloxy)-3′-oxo-N-methyl-N-(2-piperidin-1-ylethyl)-spiro[cyclohexane-1,1′-(3′H)-iso-benzofuran]-4-carboxamide]
